Read-outs that look alike come from different tables or passages of the source.

The test concerns the target T1, partially purified rat brain farnesyl protein transferase (FPT) (Rattus norvegicus, UniProt Q02293+Q04631).
T1 construct: partially purified rat brain farnesyl protein transferase (FPT); from tissue; host or cells: rat brain (partially purified enzyme)
Put plainly: FPT IC50 (inhibition of farnesyl protein transferase, in vitro enzyme assay); Ras-CVLS farnesylation. Type of test: biochemical. The procedure: In vitro enzyme assays: FPT IC50 (inhibition of farnesyl protein transferase, in vitro enzyme assay) are determined by the methods disclosed in […] or WO 95/10516.

Where [1] appears, read: in vitro enzyme assay, Ras-CVLS farnesylation, partially purified rat brain FPT, read-out: FPT IC50.

For the molecule `CCC(=O)N1CCC(CC(=O)N2CCC([C@H]3c4ncc(Br)cc4CCc4cc(Cl)cc(Br)c43)CC2)CC1` [Example 5, (+)-4-(3,10-Dibromo-8-chloro-6,11-dihydro-5H-benzo[5,6]cyclohepta[1,2-b]pyridin-11 (R)-yl)-1-[(1-oxopropyl-4-piperidinyl)acetyl]piperidine], under setting [1], the half-inhibitory concentration (IC50) was 6.8 nM. The molecule `CCC1Cc2cc(Cl)cc(Cl)c2C(N2CCN(C(=O)Cc3cc[n+]([O-])cc3)CC2)c2ncc(Br)cc21` (racemic) [Example 3] registered an IC50 of 6 nM. Regarding `O=C(CN1CCSCC1)N1CCC(C2c3ccc(Cl)c(Br)c3CCc3cc(Br)cnc32)CC1` (centres unmarked) [Example 1, 4-[8-Chloro-3,7-dibromo-5,6-dihydro-11H-benzo [5, 6]cyclohepta[1,2-b]pyridin-11-yl]-1-(4-thiomorpholinylacetyl)piperidine], the IC50 under setting [1] came out at 8.9 nM.

Consider `O=C(CN1CC[S+]([O-])CC1)N1CCC(C2c3ccc(Cl)c(Br)c3CCc3cc(Br)cnc32)CC1` (centres unmarked) [Example 2, 4-[8-Chloro-3,7-dibromo-6,11-dihydro-5H-benzo[5,6]cyclohepta[1,2-b]pyridin-11-yl]-1-(4-thiomorpholinylacetyl)piperidine S-oxide], for which the concentration for half-maximal inhibition (IC50) under setting [1] came out at 6.8 nM.

For the molecule `O=C(CN1C(=O)c2ccccc2C1=O)N1CCC(C2c3ncc(Br)cc3CCc3cc(Cl)cc(Cl)c32)CC1` (single isomer, unassigned; (+)) [Example 4, (+)-4-(3-bromo-8,10-dichloro-6,11-dihydro-5H-benzo[5,6]cyclohepta[1,2-b]pyridin-11-yl)-1-[2-(1,3-dihydro-1,3-dioxo-2H-isoindol-2-yl)-1-oxoethyl]piperidine], the half-maximal inhibitory concentration (IC50) under setting [1] is 18.6 nM.

A word on the IC50: it is the concentration needed to halve the response being measured.

For the origin of these results see patent US6071907A, “Tricyclic compounds useful as FPT inhibitors” (Schering Corporation, priority 1997, dated 2000).
